Measured values taken from patent US9833497B2, “Human originated EGF domain proteins and use of the same” (CHENGDU SOURCEBIO LIMITED-LIABILITY COMPANY, priority 2013, dated 2017).

Columns and labels:
Assay type in all cases: cell-based
[1] = test system: E. coli BL21; experiment: MIC against Gram-negative bacteria: E. coli BL21; details: 5×10^5 CFU/mL; for MIC against E. coli BL21: 96-well plate, 37° C., 10 h
How it was run: (§1)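 Broth microdilution, LB medium, final inoculum 5×10^5 CFU/mL from McFarland 0.5 cultures. Recombinant human EGF domain proteins tested in two-fold steps, n=3. MIC: lowest concentration, no growth.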

[2] = test system: Pseudomonas aeruginosa; experiment: MIC against Gram-negative bacteria: Pseudomonas aeruginosa; details: 5×10^5 CFU/mL; for MIC against P. aeruginosa: 96-well plate, 37° C., 10 h
How it was run: as §1

[3] = test system: Aeromonas hydrophila; experiment: MIC against Gram-negative bacteria: Aeromonas hydrophila; details: 5×10^5 CFU/mL; for MIC against A. hydrophila: 96-well plate, 37° C., 10 h
How it was run: as §1

[4] = test system: Enterobacter cloacae; experiment: MIC against Gram-negative bacteria: Enterobacter cloacae; details: 5×10^5 CFU/mL; for MIC against E. cloacae: 96-well plate, 37° C., 10 h
How it was run: as §1

[5] = test system: Proteus mirabilis; experiment: MIC against Gram-negative bacteria: Proteus mirabilis; details: 5×10^5 CFU/mL; for MIC against P. mirabilis: 96-well plate, 37° C., 10 h
How it was run: as §1

[6] = test system: Citrobacter diversus; experiment: MIC against Gram-negative bacteria: Citrobacter diversus; details: 5×10^5 CFU/mL; for MIC against C. diversus: 96-well plate, 37° C., 10 h
How it was run: as §1

[7] = test system: Proteus vulgaris; experiment: MIC against Gram-negative bacteria: Proteus vulgaris; details: 5×10^5 CFU/mL; for MIC against P. vulgaris: 96-well plate, 37° C., 10 h
How it was run: as §1

[8] = test system: E. coli DH5α; experiment: Antibacterial activity: MIC and growth curve against E. coli DH5α in 96-well plate; details: minimal inhibitory concentration against E. coli DH5α; 96-well plate, 5×10^5 CFU/mL, 37° C., judged after 8 h
How it was run: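 MIC taken as lowest protein level with no bacterial growth, tracked by A600 every 30 min during 37 °C, 175 rpm culture. Two-fold protein series 50-12.5 μg/mL final, triplicate wells, against 5×10^5 CFU/mL of LB-washed mid-log cells.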

[9] = test system: Klebsiella pneumonia; experiment: MIC against Gram-negative bacteria: Klebsiella pneumonia; details: 5×10^5 CFU/mL; for MIC against K. pneumonia: 96-well plate, 37° C., 10 h
How it was run: as §1

[10] = test system: Moraxella catarrhalis; experiment: MIC against Gram-negative bacteria: Moraxella catarrhalis; details: 5×10^5 CFU/mL; for MIC against M. catarrhalis: 96-well plate, 37° C., 10 h
How it was run: as §1

[11] = test system: Serratia marcescens; experiment: MIC against Gram-negative bacteria: Serratia marcescens; details: 5×10^5 CFU/mL; for MIC against S. marcescens: 96-well plate, 37° C., 10 h
How it was run: as §1

[12] = 10 h cultivation at 37° C., two-fold serial dilution

Substance | MIC (μg/mL) E. coli BL21 ([1]; 10 h cultivation at 37° C.) [µg/mL] | MIC (μg/mL) P. aeruginosa ([2]; 10 h cultivation at 37° C.) [µg/mL] | MIC (μg/mL) A. hydrophila ([3]; 10 h cultivation at 37° C.) [µg/mL] | MIC (μg/mL) E. cloacae ([4]; 10 h cultivation at 37° C.) [µg/mL] | MIC (μg/mL) P. mirabilis ([5]; 10 h cultivation at 37° C.) [µg/mL] | MIC (μg/mL) C. diversus ([6]; 10 h cultivation at 37° C.) [µg/mL] | MIC (μg/mL) P. vulgaris ([7]; 10 h cultivation at 37° C.) [µg/mL] | MIC [8] [µg/mL] | MIC (μg/mL) K. pneumonia ([9]; 10 h cultivation at 37° C.) [µg/mL] | MIC (μg/mL) M. catarrhalis ([10]; 10 h cultivation at 37° C.) [µg/mL] | MIC (μg/mL) S. marcescens ([11]; 10 h cultivation at 37° C.) [µg/mL] | MIC against E. coli BL21 [1] [µg/mL] | MIC against P. aeruginosa [2] [µg/mL] | MIC against A. hydrophila [3] [µg/mL] | MIC against E. cloacae [4] [µg/mL] | MIC against P. mirabilis [5] [µg/mL] | MIC against C. diversus [6] [µg/mL] | MIC against P. vulgaris [7] [µg/mL] | MIC against K. pneumonia [9] [µg/mL] | MIC against M. catarrhalis [10] [µg/mL] | also measured
PRT237 (DINECTPPYSVYCGFNAVCYNVEGSFYCQCVPGYRLHSGNEQFSNSNENTCQ; listed as Homo sapiens) | 12.5 | 25 | 12.5 | 25 | 25 | 25 | 25 | 25 | 12.5 | 12.5 | 50 |  |  |  |  |  |  |  |  |  | 
PRT230 (DVDECADPRACPEHATCNNTVGNYSCFCNPGFESSSGHLSFQGLKASCE; listed as Homo sapiens) | 12.5 | 25 | 12.5 | 25 | 50 | 25 | 12.5 | 25 | 12.5 | 12.5 | 50 |  |  |  |  |  |  |  |  |  | 
PRT475 (VQNTCKDNPCGRGQCLITQSPPYYRCVCKHPYTGPSCS; listed as Homo sapiens) |  |  |  |  |  |  |  | 50 |  |  |  | 12.5 | 50 | 25 | 25 | 50 | 25 | 12.5 | 25 | 12.5 | MIC against S. marcescens [11]: 50 µg/mL
PRT1193 (DANECEGKPCLNAFSCKNLIGGYYCDCIPGWKGINCH; listed as Homo sapiens) |  |  |  |  |  |  |  | 12.5 |  |  |  |  |  |  |  |  |  |  |  |  | MIC E. coli BL21 [1, 12]: 12.5 µg/mL; MIC P. aeruginosa [2, 12]: 12.5 µg/mL; MIC A. hydrophila [3, 12]: 12.5 µg/mL; MIC E. cloacae [4, 12]: 12.5 µg/mL; MIC P. mirabilis [5, 12]: 50 µg/mL; MIC C. diversus [6, 12]: 25 µg/mL; MIC P. vulgaris [7, 12]: 25 µg/mL; MIC K. pneumonia [9, 12]: 25 µg/mL; MIC M. catarrhalis [10, 12]: 12.5 µg/mL; MIC S. marcescens [11, 12]: 12.5 µg/mL
PRT490 (CASAPCRNGGVCREGWNRFICDCIGTGFLGRVCE; listed as Homo sapiens) |  |  |  |  |  |  |  | 25 |  |  |  | 50 | 25 | 50 | 25 | 25 | 25 | 50 | 12.5 | 12.5 | MIC against S. marcescens [11]: 25 µg/mL
